The values below come from publication PMC9602792, “Preclinical evaluation of the epithelial sodium channel inhibitor AZD5634 and implications on human translation” (American Journal of Physiology - Lung Cellular and …, 2022).

The assay has as its target T1, ENaC (Homo sapiens, UniProt P37088+P51168+P51170).
T1 construct: host or cells: primary normal human bronchial epithelial cells, ALI culture
T1 sequence (P37088 1-669): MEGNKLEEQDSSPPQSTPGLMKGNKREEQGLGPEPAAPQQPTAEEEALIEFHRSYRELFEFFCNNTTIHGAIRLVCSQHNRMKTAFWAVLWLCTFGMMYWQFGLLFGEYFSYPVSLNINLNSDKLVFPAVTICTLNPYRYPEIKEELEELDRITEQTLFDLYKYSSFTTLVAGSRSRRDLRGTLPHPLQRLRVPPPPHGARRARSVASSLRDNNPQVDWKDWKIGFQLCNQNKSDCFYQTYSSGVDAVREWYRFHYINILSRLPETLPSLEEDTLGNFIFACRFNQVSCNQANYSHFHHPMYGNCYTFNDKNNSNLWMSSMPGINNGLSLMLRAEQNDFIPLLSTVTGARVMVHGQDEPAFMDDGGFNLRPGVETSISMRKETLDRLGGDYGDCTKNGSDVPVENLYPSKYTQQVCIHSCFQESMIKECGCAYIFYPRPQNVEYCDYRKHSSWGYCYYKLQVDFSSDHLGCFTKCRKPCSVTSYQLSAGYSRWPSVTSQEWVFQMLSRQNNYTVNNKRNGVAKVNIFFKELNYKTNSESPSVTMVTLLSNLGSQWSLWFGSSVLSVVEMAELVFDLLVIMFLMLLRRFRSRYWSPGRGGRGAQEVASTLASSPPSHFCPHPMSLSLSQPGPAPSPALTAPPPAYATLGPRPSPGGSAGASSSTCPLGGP
T1 sequence (P51168 1-640): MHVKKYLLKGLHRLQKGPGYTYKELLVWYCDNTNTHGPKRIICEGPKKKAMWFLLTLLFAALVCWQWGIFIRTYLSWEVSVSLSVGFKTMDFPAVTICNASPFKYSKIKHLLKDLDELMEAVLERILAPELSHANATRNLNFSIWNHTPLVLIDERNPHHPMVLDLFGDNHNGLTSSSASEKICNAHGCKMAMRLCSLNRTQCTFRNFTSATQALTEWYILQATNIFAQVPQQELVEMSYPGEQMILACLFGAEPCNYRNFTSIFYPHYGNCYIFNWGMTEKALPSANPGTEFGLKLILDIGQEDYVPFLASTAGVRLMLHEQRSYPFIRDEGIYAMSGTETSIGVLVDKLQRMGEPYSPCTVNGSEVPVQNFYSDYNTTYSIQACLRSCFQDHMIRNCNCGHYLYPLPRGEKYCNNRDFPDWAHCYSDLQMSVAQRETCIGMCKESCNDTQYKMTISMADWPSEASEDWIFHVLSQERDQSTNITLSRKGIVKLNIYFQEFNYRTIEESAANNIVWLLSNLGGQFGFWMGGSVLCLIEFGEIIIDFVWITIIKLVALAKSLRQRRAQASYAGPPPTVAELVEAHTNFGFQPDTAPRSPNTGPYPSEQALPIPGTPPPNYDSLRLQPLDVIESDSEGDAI
T1 sequence (P51170 1-649): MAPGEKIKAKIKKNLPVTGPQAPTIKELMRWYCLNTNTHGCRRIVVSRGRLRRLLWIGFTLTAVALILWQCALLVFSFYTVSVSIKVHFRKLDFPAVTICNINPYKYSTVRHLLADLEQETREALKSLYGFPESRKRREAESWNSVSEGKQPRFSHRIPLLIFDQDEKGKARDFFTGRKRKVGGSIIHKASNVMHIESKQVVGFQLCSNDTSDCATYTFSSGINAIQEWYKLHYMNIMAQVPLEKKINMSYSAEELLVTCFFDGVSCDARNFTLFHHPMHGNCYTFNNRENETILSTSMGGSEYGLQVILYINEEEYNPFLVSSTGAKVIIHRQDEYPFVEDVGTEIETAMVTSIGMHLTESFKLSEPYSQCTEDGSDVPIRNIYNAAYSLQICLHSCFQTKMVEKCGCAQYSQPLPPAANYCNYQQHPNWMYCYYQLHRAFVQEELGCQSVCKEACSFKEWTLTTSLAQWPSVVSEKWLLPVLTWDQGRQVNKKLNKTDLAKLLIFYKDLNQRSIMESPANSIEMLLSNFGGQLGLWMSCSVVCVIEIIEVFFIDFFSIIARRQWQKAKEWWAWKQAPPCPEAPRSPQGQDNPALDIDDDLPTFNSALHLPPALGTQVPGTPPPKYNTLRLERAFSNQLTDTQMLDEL
Nature of the assay: Ussing chamber Isc in F508del-homozygous CF HBEC cultures. The format is cell-based. The procedure:
Using previously described techniques ([2], [37]), epithelial cells were harvested from excised lung tissue derived from CF donors homozygous for F508del CFTR, expanded, and grown until confluency was attained. […] To stimulate fresh mucus secretion and formation of an even ASL layer, the cells were washed 48–72 h before experimentation with PneumaCult ALI media (80 µL), added apically, and then aspirated following 30–45 min incubation at 37°C. The washing process was repeated with a 15-min incubation period and the mucus layer was allowed to reestablish, after which the cells were treated with 1 µL of AZD5634 (1 µM, apical), alone and in combination with lumacaftor and ivacaftor (luma/iva; 3 µM/10 µM, basolateral). PBS (1% DMSO, apical) served as a vehicle control. […] Only passage 1 and 2 monolayers were used for these studies.
CFTR-dependent ion transport electrophysiology was measured in HBEC cultures by Isc using modified P2300 Ussing chambers (Physiologic Instruments, San Diego, CA) as previously described ([37], [38]). […] All chambers were maintained at 37°C and agonist stimulation was initiated within 15 min of placement in the chambers.
Descriptive statistics were calculated and means compared using unpaired or paired t tests, or ANOVA, with post hoc analyses conducted for multiple comparisons where appropriate. For analyses of functional anatomy of en bloc trachea, a mixed linear model was used that corrected for within-animal correlation. All tests were two-sided and were computed using GraphPad Prism (GraphPad Software, Inc., La Jolla, CA). P-values <0.05 were considered significant. Statistics are reported as means ± SE, unless indicated otherwise.

As to `NC(=NCc1ccccc1)NC(=O)c1nc(Cl)c(N)nc1N` [benzamil, reference compound], the “incremental Isc change” value (at 100 nM) is recorded as −2.7 ± 1.5. For the same compound, the “cumulative ΔIsc” value (at the maximum concentration (10,000 nM)) was −12.1 ± 3.5.
